Earlier results in patent US20190076442A1, “PRESERVATIVE FREE PHARMACEUTICAL COMPOSITION FOR OPHTHALMIC ADMINISTRATION CONTAINING BIMATOPROST AND TIMOLOL” (PHARMATHEN S.A., priority 2016, published 2019).
Structures can show the parent of a compound that is named as a salt.

Row | Solubility in ethanol (ethyl alcohol) | Solubility in water | Solubility in chloroform (chloroform) | Solubility in cyclohexane (cyclohexane) | Solubility in ether (ether) | Solubility in methanol (methanol) | Solubility in propylene glycol (propylene glycol) | SMILES
1 | very soluble | slightly soluble | – | – | – | – | – | CCNC(=O)CCC/C=C\C[C@@H]1[C@@H](/C=C/[C@@H](O)CCc2ccccc2)[C@H](O)C[C@@H]1O [Bimatoprost]
2 | soluble | soluble | sparingly soluble | insoluble | insoluble | soluble | sparingly soluble | CC(C)(C)NC[C@H](O)COc1nsnc1N1CCOCC1 [Timolol maleate]
